The record followed here is patent US11420975B2, “Substituted imidazo[1,5-a]pyrazines as Bruton's tyrosine kinase inhibitors” (TRANSTHERA SCIENCES (NANJING), INC., priority 2018, dated 2022).

Test [1] deals with OCI-LY10. Kind of test: In vitro tumor cell proliferation inhibition, OCI-LY10 (CellTiter-Glo). Type of test: cell-based. The settings on record: Homo sapiens; OCI-LY10 cells, 72 h. How it is done:
(§1) (1) Method • The tumor cell line (TMD-8/OCY-LY10) was suspended in RPMI1640+FBS10% and cultured in an incubator (37° C., 5% CO2). Cells were passaged periodically, and cells at logarithmic growth phase were collected for plating. • Cell staining was performed with trypan blue and viable cells were counted. • Cell concentration was adjusted to 7000 cells/well with medium. • 90 μL of cell suspension was added to a 96-well plate and cell-free culture medium was added to the blank control wells. • Cells in the 96-well plate were incubated overnight in an incubator (37° C., 5% CO2, 100% relative humidity). • Preparation of 400× compound storage plates: test compounds and reference drug were each dissolved in DMSO and 3× diluted from the highest concentration (400 μM) to the lowest concentration (0.61 μM). • Preparation of 10× compound working solutions: 78 μL of cell culture medium was added to a V-bottom 96-well plate, and 2 μL of the compound was pipetted from the 400× compound storage plate into the 96-well plate. Vehicle control wells and blank control wells were added with 2 μL of DMSO. […] Inhibition rates of compounds at different concentrations were calculated in Excel, followed by plotting the inhibition curves and calculating IC50 values with GraphPad Prism.
On the technique in general: ATP-based viability assays read luminescence as a measure of living cells.

Test [2] deals with OCI-LY10 xenograft tumor. Kind of test: OCI-LY10 xenograft tumor model. Type of test: in vivo. The settings on record: intragastric 25 mg/kg once/day, day 28. How it is done:
(§2) CB17/SCID female mice with serious immune deficiency were purchased from Beijing Vital River Laboratory Animal Technology Co., Ltd. and bred in SPF animal houses. Human OCI-LY10 cells (Shanghai Junrui-UFBN0102) were cultured in an RPMI 1640 culture medium containing 10% fetal bovine serum, 100 U/mL penicillin and 100 μg/mL streptomycin through monolayer culture in vitro in an incubator (37° C., 5% C02). Routine treatment was performed twice a week for passaging. At a cell saturation of 80%-90% and a required number, the cells were harvested and counted. 0.2 mL (1×10^7) of OCI-LY10 cells (together with matrigel at a volume ratio of 1:1) were subcutaneously inoculated into the right back of each mouse, and the tumor size could be measured about one week after inoculation. Tumor size was measured using a vernier caliper and tumor volume was calculated using the following formula: tumor volume=(length×width^2)/2.

For test [3], the system named is TMD-8. Kind of test: In vitro tumor cell proliferation inhibition, TMD-8 (CellTiter-Glo). Type of test: cell-based. Conditions: Homo sapiens, TMD8; TMD-8 cells, 72 h. The procedure:
as §1

Test [4] relates to TMD-8 xenograft tumor. Kind of test: TMD-8 xenograft tumor model. Type of test: in vivo. Conditions: intragastric 25 mg/kg once/day. The procedure:
as §2, with “TMD-8” for “OCI-LY10”, “Junrui-UFBN1682)” for “Junrui-UFBN0102)”

The target of test [5] is BTK(wt) (Homo sapiens (Human), UniProt Q06187). Nature of the test: In vitro inhibitory activity against BTK(wt) enzyme (33P-ATP filter binding). Type of test: biochemical. Conditions: class symbols. The procedure:
(§3) The substrate solution was prepared by adding the substrate poly(Glu, Tyr) sodium salt (Sigma Aldrich, St. Louis, Mo.) to the substrate reaction buffer (20 mM Hepes (pH 7.5), 10 mM MgCl2, 1 mM EGTA, 0.02% Brij35, 0.02 mg/mL BSA, 0.1 mM Na3VO4, 2 mM DTT and 1% DMSO) (final substrate concentration in the reaction solution was 0.2 μM). Test compound was formulated into stock solutions at 10 mM concentration with 100% DMSO, and 3-fold serial dilution for 10 doses was performed in a 384-well cyclic olefin copolymer LDV microplate. […] Test compound in 100% DMSO was then added to the kinase reaction mixture by acoustic liquid transfer technology (Echo 550; nanoliter range) (Labcyte Inc, Sunnyvale, Calif.) and incubated for 20 min at room temperature. 33P-ATP (specific activity 10 μCi/μL) was added to the reaction mixture to initiate the reaction, followed by incubation at room temperature for 2 h. A small portion of the reaction mixture was dropped onto P-81 ion exchange filter paper (Whatman). After washing the unbound phosphate from the filter paper with 0.75% phosphate buffer (three times) and drying, the remaining radioactivity on the filter paper was measured. The kinase activity was expressed as the percentage of the remaining kinase activity in the test sample to the kinase activity in the vehicle (dimethyl sulfoxide) blank control. IC50 values were calculated by curve fitting the data obtained using Prism (GraphPad Software).

Test [6] addresses BTK(C481S) (Homo sapiens (Human), UniProt Q06187, C481S). Kind of test: In vitro inhibitory activity against BTK(C481S) enzyme (33P-ATP filter binding). Type of test: biochemical. Conditions: class symbols; read-out: IC50 BTK(C48IS). The procedure:
as §3

BTK(C481S), sequence (Q06187 whole entry C481S): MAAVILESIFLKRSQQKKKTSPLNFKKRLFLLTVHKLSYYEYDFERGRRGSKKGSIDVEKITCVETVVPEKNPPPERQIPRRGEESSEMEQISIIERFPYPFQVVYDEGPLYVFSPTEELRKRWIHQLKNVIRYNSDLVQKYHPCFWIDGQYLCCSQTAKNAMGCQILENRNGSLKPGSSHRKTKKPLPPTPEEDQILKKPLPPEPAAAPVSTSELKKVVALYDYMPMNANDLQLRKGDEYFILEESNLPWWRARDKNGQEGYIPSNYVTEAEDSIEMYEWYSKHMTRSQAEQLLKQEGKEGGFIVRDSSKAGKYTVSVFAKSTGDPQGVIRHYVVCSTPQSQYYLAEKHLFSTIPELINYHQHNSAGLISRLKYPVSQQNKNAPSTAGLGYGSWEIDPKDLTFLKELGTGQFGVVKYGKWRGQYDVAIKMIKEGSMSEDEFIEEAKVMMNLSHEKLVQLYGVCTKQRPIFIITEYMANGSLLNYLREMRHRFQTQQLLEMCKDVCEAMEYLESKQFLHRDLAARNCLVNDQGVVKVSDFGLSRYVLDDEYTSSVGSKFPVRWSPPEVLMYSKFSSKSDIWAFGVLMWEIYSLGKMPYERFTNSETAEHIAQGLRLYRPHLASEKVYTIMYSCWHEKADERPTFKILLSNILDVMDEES
BTK(wt), sequence (Q06187 whole entry): as the sequence (Q06187 whole entry C481S) above, with S481C counted along it

For `C=CC(=O)N1CCC[C@@H](n2nc(-c3ccc(Oc4ccccc4)cc3)c3c(N)ncnc32)C1` [Ibrutinib, ibrutinib, reference compound], the IC50 – broadly, the concentration that inhibits the measured activity by half – in test [1] amounted to 1.7 nM; in test [3] it was 0.4 nM. In addition, the TGI (usually the reduction of tumour growth relative to the control group) is 94% in test [2] and 90% in test [4].
Consider `CC(C)(O)C(=O)NC12CCC(c3nc(-c4ccc(Oc5ccccc5)cc4)c4c(N)nccn34)(CC1)C2` [Compound A-13-1, N-(4-(8-amino-1-(4-phenoxyphenyl)imidazo[1,5-a]pyrazin-3-yl)bicyclo[2.2.1]heptan-1-yl)-2-hydroxy-2-methylpropanamide], for which the IC50 in test [5] and in test [6] was 1 to 10 nM throughout.
Regarding `COCCC(=O)NC12CCC(c3nc(-c4ccc(C(=O)Nc5cc(C(F)(F)F)ccn5)cc4)c4c(N)nccn34)(CC1)C2` [Compound A-10-8, 4-(8-amino-3-(4-(3-methoxypropanamido)bicyclo[2.2.1]heptan-1-yl)imidazo[1,5-a]pyrazin-1-yl)-N-(4-(trifluoromethyl)pyridin-2-yl)benzamide], the figures for the IC50 in test [5] and in test [6] were 1 to 10 nM and at most 0.1 nM, respectively.
Turning to `CC(C)(O)C(=O)NC12CCC(n3cc(-c4ccc(C(=O)Nc5cc(C(F)(F)F)ccn5)cc4)c4c(N)ncnc43)(CC1)C2` [Compound B-6-2, 4-(4-amino-7-(4-(2-hydroxy-2-methylpropanamido)bicyclo[2.2.1]heptan-1-yl)-7H-pyrrolo[2,3-d]pyrimidin-5-yl)-N-(4-(trifluoromethyl)pyridin-2-yl)benzamide], the IC50 is 10 to 50 nM in test [5] and 1 to 10 nM in test [6].
As for `Nc1nccn2c(C34CCC(NC(=O)C5CCCO5)(CC3)C4)nc(-c3ccc(C(=O)Nc4cc(C(F)(F)F)ccn4)cc3)c12` (centres unmarked) [Compound A-10-11, N-(4-(8-amino-1-(4-((4-(trifluoromethyl)pyridin-2-yl)carbamoyl)phenyl)imidazo[1,5-a]pyrazin-3-yl)bicyclo[2.2.1]heptan-1-yl)tetrahydrofuran-2-carboxamide], the IC50 lay in the range of 1 to 10 nM in test [5] and 0.1 to 1 nM in test [6].
With `N#CCC(=O)NC12CCC(c3nc(-c4ccc(C(=O)Nc5cc(C(F)(F)F)ccn5)cc4)c4c(N)nccn34)(CC1)C2` [Compound A-10-13, 4-(8-amino-3-(4-(2-cyanoacetamido)bicyclo[2.2.1]heptan-1-yl)imidazo[1,5-a]pyrazin-1-yl)-N-(4-(trifluoromethyl)pyridin-2-yl)benzamide], the IC50 was 1 to 10 nM in test [5] and at most 0.1 nM in test [6].
Turning to `COCC(=O)NC12CCC(c3nc(-c4ccc(C(=O)Nc5cc(C(F)(F)F)ccn5)cc4)c4c(N)nccn34)(CC1)C2` [Compound A-10-7, 4-(8-amino-3-(4-(2-methoxyacetamido)bicyclo[2.2.1]heptan-1-yl)imidazo[1,5-a]pyrazin-1-yl)-N-(4-(trifluoromethyl)pyridin-2-yl)benzamide], the IC50 in test [5] is 1 to 10 nM; in test [6], 0.1 to 1 nM.
Consider `CC#CC(=O)NC12CCC(c3nc(-c4ccc(C(=O)Nc5cc(C#N)ccn5)cc4)c4c(N)nccn34)(CC1)C2` [Compound A-7-5, 4-(8-amino-3-(4-(but-2-ynamido)bicyclo[2.2.1]heptan-1-yl)imidazo[1,5-a]pyrazin-1-yl)-N-(4-cyanopyridin-2-yl)benzamide], for which the IC50 was 1 to 10 nM in test [5] and 0.1 to 1 nM in test [6].
Take `CC1(C(=O)NC23CCC(c4nc(-c5ccc(C(=O)Nc6cc(C(F)(F)F)ccn6)cc5)c5c(N)nccn45)(CC2)C3)COC1` [Compound A-10-5, N-(4-(8-amino-1-(4-((4-(trifluoromethyl)pyridin-2-yl)carbamoyl)phenyl)imidazo[1,5-a]pyrazin-3-yl)bicyclo[2.2.1]heptan-1-yl)-3-methyloxetane-3-carboxamide]: the IC50 is 1 to 10 nM in test [5] and at most 0.1 nM in test [6].
